Measurements as given in patent US6855511B2, “Fructosamine oxidase assay: methods and materials” (Protemix Corporation Limited, priority 1998, dated 2005).
pIC50: −log10 of the molar value.

What was measured:
Format in all cases: biochemical
[1] = system: Human fructosamine oxidase; assay: Interference of additives/anticoagulants in the fructosamine oxidase assay; settings: additive in the reagent (Heparin 1000 U/L, EDTA 100 μM); control 100
Experimental: (§1) The reagent is 50 mM TES buffer pH 7.4 containing 10 μM cytochrome c (Sigma), and […] 50 μM fructosamine as glycated bovine serum albumin.
(§2) One unit of enzyme was defined as the amount which reduced 1 μmol/minute of cytochrome c in solution under the above assay conditions. The calculation factor is determined from the molar absorptivity for ferrocytochrome c (E550nm) according to the formula: U/L(μmol.min^−1.L^−1)=TV×10^3/ε550nm×SV where • TV=total reaction volume • SV=sample volume (iv) Materials
Cytochrome c is a non-specific reductant and other reducing substances in sera or anticoagulants added to the blood sample at specimen collection may interfere in the assay as shown in Table 4.

fructosamine oxidase [2] = assay: Fructosamine oxidase inhibitor assay (ferricytochrome c reduction) in human blood plasma; parameters: velocity constant (K), fraction of the enzyme inhibited in a given period of time: dose or concentration left out as unconfirmed; settings: human plasma sample; for pIC50: read-out: IC50, concentration of inhibitor causing 50% inactivation of the enzyme
Experimental: as §1, §2
An important application of the current activity assay is as a means to identify potential fructosamine oxidase antagonists and inhibitors. Fructosamine oxidase inhibitors may be hydrazine compounds which bind and block the quinone co-factor, copper chelators which bind and block the copper co-factor, or substrate analogues which mimic the normal substrate of the enzyme. […]
The effectiveness of an enzyme inhibitor is usually expressed by a velocity constant (K) which determines the fraction of the enzyme inhibited in a given period of time by a certain concentration of inhibitor. The specificity of the inhibitor for the active center of the enzyme is indicated by the concentration of inhibitor causing 50% inactivation of the enzyme (IC50). […].

fructosamine oxidase [3] = assay: Specificity of the fructosamine oxidase assay for reactive oxygen species, free radical scavengers added to the reagent; settings: free radical scavenger added to the reagent (superoxide dismutase 20 kU/L, catalase 1000 kU/L, mannitol 50 mmol/L); control 15.34 ± 0.16
Experimental: as §1, §2
The specificity of the assay for reactive oxygen species was tested by measuring degree of inhibition of ferricytochrome c reduction after adding the following oxygen free radical scavengers to the reaction mixture: (a) Superoxide dismutase to selectively remove superoxide; (b) catalase to selectively remove hydrogen peroxide; & (iii) mannitol to scavenge hydroxyl radicals.

Molecule: O=C(O)CN(CCN(CC(=O)O)CC(=O)O)CC(=O)O [EDTA, ethylenediamine tetraacetic acid]
- Activity compared with control [1]: 26.3%

Molecule: C[C@H](CS)C(=O)N1CCC[C@H]1C(=O)O [captopril]
- velocity constant (K), fraction of the enzyme inhibited in a given period of time (fructosamine oxidase [2]): 2.6 % per minute
- pIC50 (fructosamine oxidase [2]): 6.08

Molecule: C[C@@](Cc1ccc(O)c(O)c1)(NN)C(=O)O [carbidopa]
- velocity constant (K), fraction of the enzyme inhibited in a given period of time (fructosamine oxidase [2]): 15 % per minute
- pIC50 (fructosamine oxidase [2]): 6.30

Molecule: OC[C@@H](O)[C@@H](O)[C@H](O)[C@H](O)CO [mannitol]
- Enzyme activity (fructosamine oxidase [3]): 14.96 ± 0.19 U/L

Molecule: Heparin
- Activity compared with control [1]: 24.4%

Molecule: catalase
- Enzyme activity (fructosamine oxidase [3]): 12.23 ± 0.03 U/L

Molecule: superoxide dismutase
- Enzyme activity (fructosamine oxidase [3]): 9.99 ± 0.03 U/L
